Usually EC50 stands for the concentration needed to bring the measured effect to its halfway point. What is called IC50 is the midpoint of a concentration-inhibition curve. What is called AC50 is the concentration giving half of the maximal activity seen.

We go through 21 compounds from ChEMBL document CHEMBL1201862, “PubChem BioAssay data set” (2004).

The source made the active and inactive calls. Rule as the data show it, for most assays here: actives have a measured EC50 and inactives only a lower limit.
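For AC50 in this document: CYP2D6 member of a cytochrome P450 panel assay.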

Chain of Cytochrome P450 2D6 (P10635 whole entry): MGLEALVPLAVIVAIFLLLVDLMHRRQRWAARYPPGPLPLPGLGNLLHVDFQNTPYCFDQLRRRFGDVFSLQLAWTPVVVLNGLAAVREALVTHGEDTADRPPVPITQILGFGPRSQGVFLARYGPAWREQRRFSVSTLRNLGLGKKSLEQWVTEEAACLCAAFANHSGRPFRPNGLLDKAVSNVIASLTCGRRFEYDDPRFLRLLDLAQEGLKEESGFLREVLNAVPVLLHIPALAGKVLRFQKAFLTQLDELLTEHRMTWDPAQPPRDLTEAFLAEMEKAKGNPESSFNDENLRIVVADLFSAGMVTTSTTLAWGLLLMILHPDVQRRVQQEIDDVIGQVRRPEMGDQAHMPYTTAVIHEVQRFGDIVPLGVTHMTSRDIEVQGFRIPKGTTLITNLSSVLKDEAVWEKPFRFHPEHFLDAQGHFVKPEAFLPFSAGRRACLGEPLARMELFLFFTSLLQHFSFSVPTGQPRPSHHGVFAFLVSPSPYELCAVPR

Test system in the first assay: not listed separately
The assay is described as follows: alpha-synuclein stem-loop luciferase translation blockers – H4 neuroglioma cells, luminescence, confirmation (AID 1988).
Conditions: not given
It counts as functional, cell-based.
`Cc1ccc(C)c(OCCn2cc(/C=C(\C#N)C(=O)NCc3ccco3)c3ccccc32)c1`: the EC50 is 25.1 µM (active).

Turning to `COc1ccccc1NC(=O)N(Cc1ccco1)Cc1cc2ccc(C)c(C)c2nc1O`, the EC50 was 11 µM (active).

For the compound `COc1cc2c(cc1OC)CN(C(=O)CNS(=O)(=O)c1ccc(C)c(C)c1)CC2`, the EC50 is on record as > 120 µM (not active).

As for `Sc1nnc(C2CCCCC2)n1/N=C/c1cccc(Cl)c1Cl`, the EC50 was 15.1 µM (active).

On to `Cn1c(C[S+]([O-])Cc2c(Cl)cccc2Cl)nnc1SCc1ccc(Cl)cc1` (centres undefined), for which the EC50 is 13.8 µM (active).

Test system in the next assay: not listed separately
The assay is described as follows: Luminescence Cell-Based Dose Response HTS to Identify Inhibitors of 5'UTR Stem-Loop Driven Prion Protein mRNA Translation in H4 Neuroglioblastoma Cells. [Related pubchem assays: 1827 (Project Summary), 1813 (Primary HTS)]. It counts as functional.
Conditions: not given
As to `Cc1ccc(C)c(OCCn2cc(/C=C(\C#N)C(=O)NCc3ccco3)c3ccccc32)c1`, the EC50 was 17.1 µM (active).

With `COc1ccccc1NC(=O)N(Cc1ccco1)Cc1cc2ccc(C)c(C)c2nc1O`, the EC50 is 27.6 µM (active).

Turning to `COc1cc2c(cc1OC)CN(C(=O)CNS(=O)(=O)c1ccc(C)c(C)c1)CC2`, the EC50 is on record as > 120 µM (not active).

`Sc1nnc(C2CCCCC2)n1/N=C/c1cccc(Cl)c1Cl`: the EC50 is recorded as > 120 µM (not active).

With `Cn1c(C[S+]([O-])Cc2c(Cl)cccc2Cl)nnc1SCc1ccc(Cl)cc1` (centres undefined), the EC50 was > 120 µM (not active).

Another assay has as its target T1, Heat shock factor protein 1 (Mus musculus, UniProt P38532).
T1 sequence (P38532 whole entry): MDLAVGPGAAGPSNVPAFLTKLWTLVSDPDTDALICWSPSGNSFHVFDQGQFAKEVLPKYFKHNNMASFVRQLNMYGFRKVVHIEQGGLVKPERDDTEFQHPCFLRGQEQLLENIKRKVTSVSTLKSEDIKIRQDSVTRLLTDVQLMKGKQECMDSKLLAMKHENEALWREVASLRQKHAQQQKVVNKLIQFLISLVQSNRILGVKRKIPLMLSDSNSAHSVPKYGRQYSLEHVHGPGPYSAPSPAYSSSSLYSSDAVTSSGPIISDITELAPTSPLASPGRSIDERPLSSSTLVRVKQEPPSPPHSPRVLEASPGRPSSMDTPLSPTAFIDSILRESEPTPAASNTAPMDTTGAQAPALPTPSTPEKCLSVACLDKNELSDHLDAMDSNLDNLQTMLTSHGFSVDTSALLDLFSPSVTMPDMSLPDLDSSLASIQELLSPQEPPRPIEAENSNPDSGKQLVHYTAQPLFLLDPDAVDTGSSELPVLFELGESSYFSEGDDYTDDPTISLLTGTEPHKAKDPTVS
Description: enhancement of HSF1-driven luciferase signal – cell-based, NIH3T3, luminescence, dose retest, confirmation (AID 435004).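 Also: stress induced by proteasome inhibitor MG132 added 30 min after compound; luciferase reporter driven by HSF1 response element in NIH3T3 cells; actives raise luminescence as potentiators of the MG132 stress response.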 It counts as functional.
Conditions: not given
Consider `COc1ccccc1NC(=O)N(Cc1ccco1)Cc1cc2ccc(C)c(C)c2nc1O`, for which the EC50 was > 260 µM (inactive).

Test system in the next assay: not listed separately
Description: NIH3T3 cell viability loss – ATP luminescence, mouse fibroblasts, counter-screen, dose response (AID 2010).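 Also: cells exposed to compound for about 90 hours before reading.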 It counts as functional, cell-based.
Conditions: not given
Take `Clc1cccc(N/N=C/c2ccc(N3CCOCC3)cc2)c1`: the EC50 is > 60 µM (not active).

For a further assay, the system named is Streptococcus sp. 'group A'. The assay is described as follows: Streptococcus pyogenes SK(-)GAS viability under kanamycin – luminescence, BacTiterGlo, confirmation, counter-screen for streptokinase expression inhibitor project, dose response (AID 1900). It counts as functional, organism-based.
Conditions: not given
(In general: A counterscreen serves to expose hits that act by an unwanted route or on another target.)
Regarding `C=C(C)C1Cc2c(C)nn(-c3nc(C)cc(C)n3)c2C1` (centres undefined), the EC50 is 25 µM (active).

Consider `Cc1ccc(OCC(=O)Nc2nc(-c3ccccn3)cs2)c(C)c1`, for which the EC50 was 1.08 µM (active).

With `Sc1nnc(C2CCCCC2)n1/N=C/c1cccc(Cl)c1Cl`, the EC50 was 4.7 µM (active).

Test system in the next assay: not listed separately
Description: Luminescence Cell-Based Dose Confirmation HTS to Identify Inhibitors of Platelet Dense Granule Release. [Related pubchem assays: 1663 (Primary HTS), 1678 (Summary of Project)].
Conditions: not given
It counts as functional.
On to `COc1ccccc1NC(=O)N(Cc1ccco1)Cc1cc2ccc(C)c(C)c2nc1O`, for which the EC50 is recorded as > 112 µM (not active).

Test system in another assay: not listed separately
Description: cells. It counts as functional.
Conditions: not given
In the case of `C=C(C)C1Cc2c(C)nn(-c3nc(C)cc(C)n3)c2C1` (centres undefined), the IC50 was 3.19 µM (active).

For `O=C(Nc1nnc(-c2ccc(Cl)cc2)o1)C1=COCCO1`, the IC50 was 4.83 µM (active).

Regarding `O=C(OCC(=O)N1CCc2ccccc21)c1ccc([N+](=O)[O-])cc1`, the IC50 was 7.65 µM (active).

For `COCCOC(=O)c1c(C)oc2ccc(OC(=O)c3ccco3)cc12`, the IC50 was > 50 µM (active).

With `COc1cccc(NC(=O)c2cc3ccccc3oc2=O)c1`, the IC50 is 34.4 µM (active).

Test system in the next assay: not listed separately
The assay is described as follows: luciferase reporter signal suppression in cells – H4 neuroglioma cells, luminescence, dose response (AID 1990). It counts as functional, cell-based.
Conditions: not given
Background: In a reporter assay the amount or activity of a reporter protein is the signal.
Take `Cc1ccc(C)c(OCCn2cc(/C=C(\C#N)C(=O)NCc3ccco3)c3ccccc32)c1`: the EC50 is given as > 120 µM (not active).

With `COc1ccccc1NC(=O)N(Cc1ccco1)Cc1cc2ccc(C)c(C)c2nc1O`, the EC50 was > 60 µM (not active).

As to `COc1cc2c(cc1OC)CN(C(=O)CNS(=O)(=O)c1ccc(C)c(C)c1)CC2`, the EC50 is listed as > 120 µM (not active).

In the case of `Sc1nnc(C2CCCCC2)n1/N=C/c1cccc(Cl)c1Cl`, the concentration giving a half-maximal response (EC50) is 15.2 µM (active).

For the compound `Cn1c(C[S+]([O-])Cc2c(Cl)cccc2Cl)nnc1SCc1ccc(Cl)cc1` (centres undefined), the EC50 is > 120 µM (not active).

The test system of a further assay is H9c2. Description: cells. It counts as functional, cell-based. The following applies: Rattus norvegicus, H9c2, Myocardium.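 Also: confirmatory concentration-response retest of ultra-high-throughput screening hits for modulation of myocardial damage; cell death induced by hydrogen peroxide oxidative stress; compound pretreatment for 60 min then peroxide exposure for 2 h; potency is for protecting the cells against peroxide damage rather than for killing them.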
As to `COc1ccc(Nc2nc(C(=O)N3CCc4cc(OC)c(OC)cc4C3)cs2)cc1`, the IC50 was > 79 µM (inactive).

For `Cc1ccc(OCC(=O)Nc2nc(-c3ccccn3)cs2)c(C)c1`, the IC50 was > 79 µM (inactive).

As for `CC(=O)NCc1ccc(-c2csc(NC(=O)CCc3nc(O)c4ccccc4n3)n2)s1`, the IC50 is > 79 µM (inactive).

As for `CN(CC(=O)Nc1cccc(F)c1)C(=O)CCc1nc(O)c2ccccc2n1`, the IC50 is > 79 µM (inactive).

Regarding `COc1ccc(-c2cc(C(F)(F)F)n3nc(C(=O)N4CCN(C(=O)c5ccco5)CC4)cc3n2)cc1`, the IC50 was 13 µM (active).

As for `Cc1ccc(NC(=O)c2[nH]cnc2C(=O)NCCCCCCNC(=O)c2nc[nH]c2C(=O)Nc2ccc(C)cc2)cc1`, the IC50 was > 79 µM (inactive).

A further assay relates to Streptococcus. The assay is described as follows: GAS UMAA2166 growth inhibition – luminescence, BacTiterGlo, counter-screen for streptokinase expression inhibitor project, dose response (AID 1915).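 Also: potency for reduction of bacterial viability or growth.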 It counts as functional, organism-based.
Conditions: not given
Consider `C=C(C)C1Cc2c(C)nn(-c3nc(C)cc(C)n3)c2C1` (centres undefined), for which the EC50 is recorded as > 150 µM (not active).

For the compound `Cc1ccc(OCC(=O)Nc2nc(-c3ccccn3)cs2)c(C)c1`, the EC50 is 4.62 µM (active).

`Sc1nnc(C2CCCCC2)n1/N=C/c1cccc(Cl)c1Cl`: the 50% effective concentration (EC50) is 7.5 µM (active).

Test system in a further assay: not listed separately
Description: Trypanosoma cruzi growth suppression in host cells – NIH3T3 host cells, beta-gal luminescence, confirmation (AID 2044).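 Also: intracellular parasites grown in NIH/3T3 mouse fibroblasts as host cells; luminescent beta-galactosidase reporter signal from transgenic T. cruzi replicating inside host cells; inhibitors lower the luminescence signal.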 It counts as functional, cell-based.
Conditions: not given
For the compound `Clc1cccc(N/N=C/c2ccc(N3CCOCC3)cc2)c1`, the EC50 was 2.74 µM (active).

A further assay addresses T2, Streptokinase A (Streptococcus pyogenes serotype M1, UniProt P10520).
T2 sequence (P10520 whole entry): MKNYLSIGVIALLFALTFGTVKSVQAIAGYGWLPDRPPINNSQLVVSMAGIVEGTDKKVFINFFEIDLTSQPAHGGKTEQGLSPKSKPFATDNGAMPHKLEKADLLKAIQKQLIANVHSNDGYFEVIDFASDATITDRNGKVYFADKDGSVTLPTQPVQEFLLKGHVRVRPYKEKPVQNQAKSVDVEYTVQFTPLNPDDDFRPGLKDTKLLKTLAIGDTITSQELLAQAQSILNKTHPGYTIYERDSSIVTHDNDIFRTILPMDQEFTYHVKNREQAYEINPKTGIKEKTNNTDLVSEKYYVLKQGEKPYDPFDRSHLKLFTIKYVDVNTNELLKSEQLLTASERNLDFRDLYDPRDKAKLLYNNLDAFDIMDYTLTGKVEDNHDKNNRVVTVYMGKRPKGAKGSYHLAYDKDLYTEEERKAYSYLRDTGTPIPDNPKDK
Description: viability-normalized secreted streptokinase activity reduction – plasminogen activation absorbance, OD405, dose response (AID 1914).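 Also: secreted streptokinase activity via plasminogen activation per viability signal from cell pellet.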 It counts as functional, Streptococcus pyogenes M1 GAS.
Conditions: not given
As for `C=C(C)C1Cc2c(C)nn(-c3nc(C)cc(C)n3)c2C1` (centres undefined), the EC50 is on record as > 150 µM (not active).

As to `Sc1nnc(C2CCCCC2)n1/N=C/c1cccc(Cl)c1Cl`, the EC50 was > 150 µM (not active).

The target in another assay is Luciferin 4-monooxygenase (Photinus pyralis, UniProt P08659). Description: inhibition of purified Photinus pyralis luciferase – biochemical, luminescence, dose response (AID 1891).
Chain of Luciferin 4-monooxygenase (P08659 whole entry): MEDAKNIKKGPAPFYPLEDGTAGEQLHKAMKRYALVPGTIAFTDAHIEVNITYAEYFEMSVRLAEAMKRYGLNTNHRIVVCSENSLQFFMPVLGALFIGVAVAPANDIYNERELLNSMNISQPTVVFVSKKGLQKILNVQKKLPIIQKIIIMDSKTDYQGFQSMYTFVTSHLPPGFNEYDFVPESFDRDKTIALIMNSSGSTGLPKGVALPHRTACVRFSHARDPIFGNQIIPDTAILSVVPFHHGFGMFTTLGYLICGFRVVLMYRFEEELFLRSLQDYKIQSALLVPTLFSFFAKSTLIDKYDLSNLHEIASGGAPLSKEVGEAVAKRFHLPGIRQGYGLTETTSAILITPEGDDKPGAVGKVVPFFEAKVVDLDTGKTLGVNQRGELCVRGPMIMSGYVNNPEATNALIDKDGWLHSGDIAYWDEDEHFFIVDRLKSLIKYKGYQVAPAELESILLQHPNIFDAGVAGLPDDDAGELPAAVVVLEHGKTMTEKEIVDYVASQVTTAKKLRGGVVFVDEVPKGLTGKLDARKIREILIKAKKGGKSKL
Conditions: not given
As for `COc1ccccc1NC(=O)N(Cc1ccco1)Cc1cc2ccc(C)c(C)c2nc1O`, the EC50 is on record as > 112 µM (not active).

A further assay addresses Cytochrome P450 2D6 (Homo sapiens, UniProt P10635).
Assay: not given
Conditions: not given
For the compound `CS(=O)(=O)Nc1cccc(-c2ccc3ncnc(Nc4ccccc4)c3c2)c1`, the AC50 is 25.1 µM (inconclusive).

On to `COc1ccccc1-c1ccc2ncnc(NCCN3CCOCC3)c2c1`, for which the AC50 is 39.8 µM (inconclusive).

For `Cc1cccc(NC(=O)N(Cc2nc(O)c3ccccc3n2)C2CCCC2)c1`, the AC50 is 39.8 µM (inconclusive).

With `Clc1cccc(N/N=C/c2ccc(N3CCOCC3)cc2)c1`, the AC50 is 7.08 µM (inconclusive).

Take `CN1CC[C@@]2(CCCN(C(=O)c3csnn3)C2)C1`: the AC50 is 39.8 µM (inconclusive).
